Results on four compounds are retold here after paper PMC4106346, “The Oligomeric States of the Purified Sigma-1 Receptor Are Stabilized by Ligands” (The Journal of Biological Chemistry, 2014).

Assay [1] concerns the target T1, sigma-1 receptor (S1R) (Cavia porcellus, UniProt Q60492). Kind of assay: ligand stabilization of the purified oligomer at […] °C, analytical SEC. Format: binding. The arrangement: gene SIGMAR1; MBP-4A-S1R, purified oligomer (peak 1).
Assay [2] deals with T2, sigma-1 receptor (S1R) (Cavia porcellus, UniProt Q60492, H97A).
T2 construct: gene SIGMAR1; MBP-4A-S1R
T2 sequence (Q60492 whole entry H97A): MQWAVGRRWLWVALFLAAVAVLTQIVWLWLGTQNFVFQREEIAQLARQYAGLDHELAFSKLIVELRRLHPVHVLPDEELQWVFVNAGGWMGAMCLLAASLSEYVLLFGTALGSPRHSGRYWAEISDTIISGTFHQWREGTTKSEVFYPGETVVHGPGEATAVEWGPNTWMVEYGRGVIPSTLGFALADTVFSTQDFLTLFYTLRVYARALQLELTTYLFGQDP
The experiment in a line: radioligand filtration binding, […] (+)-[3H]pentazocine.

Assay [3] has as its target T1, sigma-1 receptor (S1R). Kind of assay: titration by ligand stabilization of the oligomer, analytical SEC with tryptophan fluorescence. It is filed as binding. The arrangement: gene SIGMAR1.
In assay [4] the target is T1, sigma-1 receptor (S1R). The experiment in a line: ligand stabilization of the purified oligomer, analytical SEC. It is filed as binding. Set-up: gene SIGMAR1; MBP-4A-S1R, purified oligomer (peak 1).

Structures are written as SMILES. Counter-ions that a name gives are not always drawn.

T1 sequence (Q60492 whole entry): as the sequence (Q60492 whole entry H97A) above, with A97H counted along it

On to `c1ccc(CCCCN2CCC(c3ccccc3)CC2)cc1` [4-PPBP, 4-phenyl-1-(4-phenylbutyl)piperidine maleate], for which the “ligand stabilization of the purified oligomer at 37 °C, analytical SEC” value in assay [1] is “Tight-binding ligands 4-PPBP, BD-1047 and others stabilized the oligomeric states”.

For the compound `CC(C)=CCN1CC[C@]2(C)c3cc(O)ccc3C[C@H]1[C@H]2C` [(+)-pentazocine], in assay [2], the “% of nonmutated binding” value was ~ 50 % of nonmutated binding.

For the compound `CN(C)CCN(C)CCc1ccc(Cl)c(Cl)c1` [BD-1047, N-[2-(3,4-dichlorophenyl)ethyl]-N-methyl-2-(dimethylamino)ethylamine dihydrobromide], the dissociation constant (Kd) in assay [3] is approximately 7 nM.

Regarding `CCCCCCCCCCCCC/C=C/[C@@H](O)[C@@H](N)CO` [sphingosine], the “ligand stabilization of the purified oligomer, analytical SEC” value in assay [4] is recorded as “the natural membrane lipid sphingosine gave a stabilizing interaction that was close to that of many of the synthetic ligands”.

Broadly, the Kd is the concentration at which binding is half-saturated.
